Data set [1] relates to ventral prostate of mature male rat. In words: Prostate gland reducing action toward mature male rat. To be noted: 360 h; oral, once a day for 15 days, male Wistar rat, ventral prostate wet weight, linear regression. In kind it is in vivo. On the procedure:
3. Prostate Gland Reducing Action Toward Mature Male Rat
To a male 9-10 weeks old Wistar rat, the compound of the present invention suspended in a 0.5% methylcellulose solution was orally administered once a day continuously for 15 days. After 6 hours from the final administration, the wet weight of its ventral prostate was measured and a prostate gland reducing of the compound of the present invention was investigated.
The prostate gland reducing of the compound of the present invention was calculated according to the following formula using a group to which the compound of the present invention was administered as a test group and a group to which only methylcellulose was administered as a control group. Lessening ratio (%)=100(B−A)/B
A: Wet weight of ventral prostate in test group
B: Wet weight of ventral prostate in control group
From the lessening ratio determined in the above, an ED50 value was calculated by the linear regression method.

For data set [2], the target named is T1, human androgen receptor (Homo sapiens, UniProt P10275).
T1 construct: expressed in transfected cells
T1 sequence (P10275 1-920): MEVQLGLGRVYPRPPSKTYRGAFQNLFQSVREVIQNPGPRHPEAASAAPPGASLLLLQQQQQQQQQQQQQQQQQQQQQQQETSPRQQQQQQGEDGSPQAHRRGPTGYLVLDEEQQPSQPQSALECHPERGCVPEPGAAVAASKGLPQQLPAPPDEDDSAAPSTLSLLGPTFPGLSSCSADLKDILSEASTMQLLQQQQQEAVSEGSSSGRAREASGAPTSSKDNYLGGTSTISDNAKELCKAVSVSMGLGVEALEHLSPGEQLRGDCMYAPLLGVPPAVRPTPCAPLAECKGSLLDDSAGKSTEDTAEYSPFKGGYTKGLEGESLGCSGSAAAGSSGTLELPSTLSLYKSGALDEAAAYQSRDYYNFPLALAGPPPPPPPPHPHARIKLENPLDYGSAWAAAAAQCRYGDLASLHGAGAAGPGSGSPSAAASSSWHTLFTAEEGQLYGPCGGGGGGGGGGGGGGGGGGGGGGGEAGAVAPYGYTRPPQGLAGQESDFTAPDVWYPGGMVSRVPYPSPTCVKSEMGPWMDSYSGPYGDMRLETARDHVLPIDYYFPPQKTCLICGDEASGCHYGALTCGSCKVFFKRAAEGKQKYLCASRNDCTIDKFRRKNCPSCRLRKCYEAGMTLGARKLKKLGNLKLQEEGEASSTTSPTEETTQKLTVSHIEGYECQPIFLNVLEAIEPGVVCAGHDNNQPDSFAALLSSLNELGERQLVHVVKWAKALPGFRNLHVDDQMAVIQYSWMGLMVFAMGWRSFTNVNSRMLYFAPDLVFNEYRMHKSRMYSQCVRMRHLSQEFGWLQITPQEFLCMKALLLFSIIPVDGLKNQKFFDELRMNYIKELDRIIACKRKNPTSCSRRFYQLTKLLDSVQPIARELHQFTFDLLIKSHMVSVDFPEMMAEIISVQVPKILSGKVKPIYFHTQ
Kind of data set: Transcription activation inhibitory action toward human androgen receptor (antagonistic action), MMTV luciferase reporter in CHO cells. In kind it is cell-based.
Description: b) Evaluation of Transcription Activation Inhibitory Action Toward Human Androgen Receptor (Antagonistic Action)
CHO/MMTV stable transformant cells and CHO/SV40 stable transformant cells were each inoculated to a 96-well luminoplate for cell culture in an amount of 2×10^4 cells. After 6 to 8 hours, each of the compounds of the present invention was added together with DHT (final concentration of 0.3 nM). After about 18 hours from the addition of the compound, 20 μl of a solution containing 1% triton-X and 10% glycerin was added thereto to dissolve the cells and 100 μl of a luciferase substrate solution containing 0.47 mM luciferin was further added thereto. Then, emitted light intensity was measured using a luminometer, the intensity being regarded as luciferase activity obtained by MMTV-LTR transcription activation due to androgen receptor and nonspecific activation of SV40 promoter transcription.
The transcription activation inhibitory action of the compound of the present invention was calculated according to the following equation as an inhibitory ratio to the transcription activity induced by 0.3 nM DHT. Inhibitory ratio (%)=100(I′−X′)/(I′−B)
I′: (MMTV luciferase activity)/(SV40 luciferase activity) in the case that 0.3 nM DHT is only added
B: (MMTV luciferase activity)/(SV40 luciferase activity) without treatment
X′: (MMTV luciferase activity)/(SV40 luciferase activity) in the case that the compound of the present invention is added together with 0.3 nM DHT
IC50 was determined from the concentration of the compound of the present invention at which the inhibitory ratio calculated by the above method reached 50%.

Data set [3] deals with T1, human androgen receptor. In words: Transcription activating action toward human androgen receptor (agonistic action), MMTV luciferase reporter in CHO cells. In kind it is cell-based. Particulars: ratio to transcription activity induced by 1 nM DHT; CHO/MMTV and CHO/SV40 stable transformants. On the procedure:
1. Transcription Activation Regulatory Action Toward Human Androgen Receptor
Acquisition of Human Androgen Receptor-Expressing, Stable Transformant of MMTV Reporter Gene, and Stable Transformant of SV40 Reporter Gene
CHO cells were seeded on a dish for cell culture having a diameter of 100 mm in an amount of 1×10^6 cells. After 12 to 18 hours, a human androgen receptor-expressing plasmid, MMTV-LTR luciferase reporter plasmid (also inclusive of neomycin resistant gene) co-precipitated with calcium phosphate was added thereto to effect transfection. […]
CHO/MMTV stable transformant cells and CHO/SV40 stable transformant cells were each seeded to a 96-well luminoplate for cell culture in an amount of 2×10^4 cells/well. […] Then, emitted light intensity was measured by means of a luminometer, the intensity being regarded as luciferase activity obtained by MMTV-LTR transcription activation due to human androgen receptor and nonspecific activation of SV40 promoter transcription.
The transcription activating action of the compound of the present invention was calculated according to the following equation as a ratio to the transcription activity induced by 1 nM DHT. […]
For orientation: Reporter assays use an easily measured gene product as a stand-in for the process of interest.

Structures can show the parent of a compound that is named as a salt. Where two headings read alike, the source gives them in different places. Where only a bound is given, the exact number is not on record here.

By ED50 is commonly meant the dose at which the effect has come halfway, by size or by number of responders. Lower therefore signals an effect at a small dose. One may read the IC50 as the concentration needed to halve the response being measured. `C[C@@H]1CN(c2ccc(C#N)c(C(F)(F)F)c2)[C@@H](C)CN1C(=O)Nc1cnc(C2CC2)nc1` [Example 3-30, (2R,5S)-4-(4-cyano-3-trifluoromethylphenyl)-N-(2-cyclopropylpyrimidin-5-yl)-2,5-dimethylpiperazine-1-carboxamide] displayed a median effective dose (ED50) in data set [1] of 3.9 mg/kg. Besides, at human androgen receptor [2], the IC50 came to 68 nM.
Regarding `C[C@@H]1CN(c2ccc(C#N)c(Cl)c2)[C@@H](C)CN1C(=O)Nc1cnc(C2CC2)nc1` [Example 3-9, (2R,5S)-4-(3-chloro-4-cyanophenyl)-N-(2-cyclopropylpyrimidin-5-yl)-2,5-dimethylpiperazine-1-carboxamide], the ED50 in data set [1] is 4.5 mg/kg.
Broadly, the melting point is the temperature, or range, at which the solid turns liquid. As to `COc1cc(N2C[C@@H](C)N(C(=O)Nc3ccc(C(F)(F)F)nc3)C[C@@H]2C)ccc1C#N` (as salt: salt) [Example 3-15, (2R,5S)-4-(4-cyano-3-methoxyphenyl)-2,5-dimethyl-N-(6-trifluoromethyl-3-pyridyl)piperazine-1-carboxamide], the melting point lay in the range of 211 to 212 °C.
Take `C[C@@H]1CN(c2ccc(C#N)c(Br)c2)[C@@H](C)CN1C(=O)Nc1ccc(C(F)(F)F)nc1` [Example 3-23, (2R,5S)-4-(3-bromo-4-cyanophenyl)-2,5-dimethyl-N-(6-trifluoromethyl-3-pyridyl)piperazine-1-carboxamide]: in data set [1], the median effective dose (ED50) is 1.1 mg/kg. In addition, it took 53 nM to reach half-maximal inhibition against human androgen receptor [2] (IC50).
For `C[C@@H]1CN(c2ccc(C#N)c(Br)c2)[C@@H](C)CN1C(=O)Nc1ccc(C(F)(F)F)nc1` (as salt: salt) [Example 3-23, (2R,5S)-4-(3-bromo-4-cyanophenyl)-2,5-dimethyl-N-(6-trifluoromethyl-3-pyridyl)piperazine-1-carboxamide], the melting point lay within 216 to 218 °C.
With `COc1cc(N2C[C@@H](C)N(C(=O)Nc3ccc(C(F)(F)F)nc3)C[C@@H]2C)ccc1C#N` [Example 3-15, (2R,5S)-4-(4-cyano-3-methoxyphenyl)-2,5-dimethyl-N-(6-trifluoromethyl-3-pyridyl)piperazine-1-carboxamide], the ED50 in data set [1] turned out to be 4.1 mg/kg. Also, the IC50 at human androgen receptor [2] (against 0.3 nM DHT, CHO/MMTV and CHO/SV40 stable transformants, read-out: Transcription activation inhibitory action (IC50 nM)) was found to be 130 nM.
Turning to `C[C@@H]1CN(c2ccc(C#N)c(Cl)c2)[C@@H](C)CN1C(=O)Nc1ccc(C#N)nc1` [Example 3-12, (2R,5S)-4-(3-chloro-4-cyanophenyl)-N-(6-cyano-3-pyridyl)-2,5-dimethylpiperazine-1-carboxamide], the agonistic induction ratio at human androgen receptor [3] is on record as at most 1%. Moreover, the ED50 in data set [1] worked out at 1.7 mg/kg. On human androgen receptor [2], the IC50 worked out at 40 nM.

The values above are taken from patent US7666873B2, “N-phenyl-(2R,5S)dimethylpiperazine derivative” (Astellas Pharma Inc., priority 2002, dated 2010).
